Assay [1] relates to Brassica oleracea cv Botrytis (temperate cauliflower Spacestar) seeds. Briefly: Cauliflower paper germination test under suboptimal conditions. It counts as in vivo. The note with it: 25 μM, 10° C. and in the light. On the procedure:
The effect of compounds of Formula (I) on the germination of Brassica oleracea cv Botrytis or common cauliflower was tested on two types of cauliflowers: temperate types and tropical types. These two types were chosen because they display different sensitivities to the light conditions and temperature during germination. Germination of a sensitive temperate type is inhibited by light at 10° C. while for the tropical types germination at 20° is stimulated by the presence of light. […] The temperate seed batches tested are part of commercially produced seed batches of various varieties which are known to be sensitive to light at 10° C. These seeds were harvested and cleaned according standard commercial procedures. Ready seed batches were used (Ready indicates the processing level of these seeds: they have been cleaned and sized but received no other treatments). The tropical seed batches tested are part of seed batches produced as basic seed (for maintenance of the parental line) and were processed accordingly. Germination was assessed using the standard paper germination test for Brassica: Fifty seeds were placed on blue germination paper, which was moistened with the appropriate solutions, in closed oblong germination boxes. Each condition was tested in duplo. Germination boxes were placed in controlled germination cabinets with the appropriate temperature and light conditions. Germination of seeds was counted at regular intervals. Seeds were considered to be germinated when the radical had protruded the testa and endosperm (radical size approximately 1 mm). Test compounds were dissolved in DMSO at a concentration of 50 mM and stored at −20° C. The strigolactone analogue GR24 (commercially available as a racemic mixture of 2 diastereoisomers, referred to as “synthetic strigolactone GR-24” and first prepared by Johnson A. W. & all, Journal of the Chemical Society, Perkin Transactions 1, 1981, page 1734-1743) was included as positive control. Germination solutions were prepared by diluting the stock solutions with demineralized water till 25 μM. As control solutions demineralized water and a 0.05% v/v DMSO solution were used.

For assay [2], the system named is Orobanche cumana Wallr. seeds (race 'F'). Briefly: Orobanche cumana seed germination test on glass fiber filter paper. The note with it: preconditioned seeds, seed lot IN153, 10 days at 20° C. in the dark, mean, N = 5 × 100 seeds. It counts as in vivo. As for the experimental part: The effect of compounds of Formula (I) on germination of Orobanche cumana Wallr. seeds was evaluated on glass fiber filter paper (GFFP) in petri dishes. Seeds were preconditioned at moisture and suitable temperature to become responsive to the specific chemical germination stimulants.
Test compounds were dissolved in DMSO (10 000 mg l^−1) and stored at room temperature in a desiccators with desiccants. The stock solutions were dissolved with deionised water to the appropriate final test concentration.
Seeds of O. cumana race ‘F’ were collected from sunflower fields in Manzanilla (Seville, Spain) in 2008 (seed lot IN153) and stored at room temperature. To separate seeds from heavy organic debris, a modified sucrose floatation technique as described by Hartman & Tanimonure (Plant Disease (1991), 75, p. 494) was applied. Seeds were filled into a separation funnel and stirred in water. When seeds floated to the surface, the water fraction containing heavy debris was discarded. Seeds were re-suspended in 2.5M sucrose solution (specific gravity of 1.20) and heavy debris was allowed to settle down for 60 min. After removing debris, seeds were disinfected in 1% sodium hypochlorite solution and 0.025% (v/v) Tween 20 for 2 min. The seeds were decanted onto two layers of cheesecloth, rinsed with sterile deionised water and re-suspended in sterile deionised water. Two ml of the seed suspension containing approximately 150-400 seeds were spread evenly on two layers of sterile glass fiber filter paper disc ([…]) in Petri dishes (Ø9 cm). After wetting the discs with 3 ml sterile deionised water, petri dishes were sealed with parafilm. Seeds were incubated for 10 days at 20° C. in the dark for seed conditioning. The upper disc with conditioned seeds was briefly dried, transferred to a petri dish lined with a dry GFFP disc, and wetted with 6 ml of the appropriate test solution. The compounds of Formula (I) were tested at concentrations of 0.001, 0.01, and 0.1 mg l^−1. The strigolactone analogue GR24 (commercially available as a mixture of isomers) was included as positive control and 0.001% DMSO as negative control. All treatments were tested in five replicates. Seeds were re-incubated at 20° C. in the dark and examined for germination 10 days later. The radicles of germinated seeds were stained for 5 min with blue ink (MIGROS, Switzerland) in 5% acetic acid according to Long et al. (Seed Science Research (2008), 18, p. 125). After staining, seeds were scanned using a flatbed scanner with an optical resolution of 1200 dpi (PULSTEK, OpticPro ST28) or photographed using a camera stand mounted with a digital SLR camera (Canon EOS 5D). Germination of 100 seeds per replicate was evaluated on digital images. Seeds were considered germinated when the radicle protruded from the seed coat.

The mark [3] stands for this setting: Spacestar seed batch 11B313 (cold-sensitive).
[4] abbreviates: Spacestar seed batch 11B314 (not cold sensitive).

The text below walks through data of patent US20180134726A1, “PLANT GROWTH REGULATING COMPOUNDS” (Syngenta Participations AG, priority 2012, published 2018).

SMILES strings stand for the structures.

Take `CC1=C[C@H](O/C=C2/C(=O)O[C@@H]3c4ccccc4C[C@H]23)OC1=O` [GR24]: the “Gmax (total germination as percentage of sown seeds)” value in assay [1] (setting [3]) was 71.5%; in assay [1] (setting [4]) it was 93.5%. The “stimulation (extra germination compared to the DMSO treatment, as percentage of the germination in the DMSO treatment)” value in assay [1] (setting [3]) came to 19.2%; in assay [1] (setting [4]), 3.3%. Besides, the “Germination (%)” value in assay [2] (0.001 mg l^−1) was 67%; in assay [2] (0.01 mg l^−1) it was 65%; in assay [2] (0.1 mg l^−1), 78.4%.

With `CC1=C[C@H](O/C=C2/C(=O)N[C@@H]3c4ccsc4C[C@H]23)OC1=O` (racemic) [Compound A3, (3aR*,8bS*)-(3E)-3-[(2R)(4-methyl-5-oxo-2H-furan-2-yl)oxymethylene]-3,3a,4,8b-tetrahydro-1H-thioindeno[1,2-b]pyrrol-2-one], the entries for the “Gmax (total germination as percentage of sown seeds)” value in assay [1] (setting [3]) and in assay [1] (setting [4]) were 75.0% and 94.0%, respectively. Besides, the “stimulation (extra germination compared to the DMSO treatment, as percentage of the germination in the DMSO treatment)” value in assay [1] (setting [3]) was determined as 38.9%; in assay [1] (setting [4]) it was 9.3%. The “Germination (%)” value in assay [2] (0.001 mg l^−1) is 87.8%; in assay [2] (0.01 mg l^−1), 85.6%; in assay [2] (0.1 mg l^−1), 84.6%.
